In patent US20070049593A1 (priority 2004, published 2007):
Structures can show the parent of a compound that is named as a salt.

Biological target: T1, HCV polymerase (Hepatitis C virus genotype 1b, UniProt P26663)
T1 construct: a region encoding NS5B (J Virol 1991 March, 65(3), 1105-13, 544 amino acids after deletion of 47 amino acids on the C-terminal); 6xHis (C); made in house; host or cells: Escherichia coli
Test: biochemical
Design: species or system HCV BK strain
How it was run: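 Recombinant HCV BK-strain NS5B (C-terminal 47 aa deleted, His6-tagged, E. coli), 0.5 μg/ml, run with 5 μg/ml in vitro-transcribed RNA template (polyU/3′X), ATP/GTP/CTP 50 μM, UTP 2 μM plus [3H]UTP, pH 7.5, 25° C, 90 min. TCA-precipitated RNA counted by scintillation; IC50 from activity with vs without compound.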

T1 sequence (P26663 2420-2963): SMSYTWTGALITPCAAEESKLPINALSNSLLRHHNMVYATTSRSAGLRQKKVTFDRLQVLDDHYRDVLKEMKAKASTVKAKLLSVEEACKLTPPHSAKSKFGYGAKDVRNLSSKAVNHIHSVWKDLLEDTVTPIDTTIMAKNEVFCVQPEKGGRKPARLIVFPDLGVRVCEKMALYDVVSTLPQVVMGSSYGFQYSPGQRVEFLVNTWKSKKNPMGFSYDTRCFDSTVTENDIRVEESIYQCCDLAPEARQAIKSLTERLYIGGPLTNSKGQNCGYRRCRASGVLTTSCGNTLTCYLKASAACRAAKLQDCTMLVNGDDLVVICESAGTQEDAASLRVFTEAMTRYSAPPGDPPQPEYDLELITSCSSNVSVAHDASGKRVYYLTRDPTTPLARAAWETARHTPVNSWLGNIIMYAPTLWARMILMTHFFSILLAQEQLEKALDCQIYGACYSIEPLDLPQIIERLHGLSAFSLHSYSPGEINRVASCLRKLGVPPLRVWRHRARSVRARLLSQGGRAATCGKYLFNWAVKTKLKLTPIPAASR

| SMILES | IC50 [nM] |
| --- | --- |
| Cc1ccc2c(c1)N(CCN1CCC[C@@H](CCN(C)C(=O)OC(C)(C)C)C1)CCn1c-2c(C2CCCCC2)c2ccc(C(=O)O)cc21 [Example 1-557, 5-(2-{(S)-3-[2-(N-tert-butoxycarbonyl-N-methylamino)ethyl]piperidin-1-yl)ethyl)-13-cyclohexyl-3-methyl-6,7-dihydro-5H-benzo[5,6][1,4]diazepino[7,1-a]indole-10-carboxylic acid monohydrochloride] | < 100 |
| Cc1ccc2c(c1)N(C1CCN(C(=O)OCc3ccccc3)CC1)CCn1c-2c(C2CCCCC2)c2ccc(C(=O)O)cc21 [Example 1-558, 5-(1-benzyloxycarbonylpiperidin-4-yl)-13-cyclohexyl-3-methyl-6,7-dihydro-5H-benzo[5,6][1,4]diazepino[7,1-a]indole-10-carboxylic acid] | 100 to 1000 |
| Cc1ccc2c(c1)N(CCN1CCC[C@@H](CCN(C)C(=O)N(C)C)C1)CCn1c-2c(C2CCCCC2)c2ccc(C(=O)O)cc21 [Example 1-559, 13-cyclohexyl-3-methyl-5-(2-{(S)-3-[2-(trimethylureido)ethyl]piperidin-1-yl}ethyl)-6,7-dihydro-5H-benzo[5,6][1,4]diazepino[7,1-a]indole-10-carboxylic acid dihydrochloride] | < 100 |
| CN(C)CCN1CCn2c(c(C3CCCCC3)c3ccc(C(=O)O)cc32)-c2ccc(OCc3ccc(Cl)s3)cc21 [Example 1-560, 3-(5-chlorothiophen-2-ylmethoxy)-13-cyclohexyl-5-(2-dimethylaminoethyl)-6,7-dihydro-5H-benzo[5,6][1,4]diazepino[7,1-a]indole-10-carboxylic acid dihydrochloride] | < 100 |
| Cc1ccc2c(c1)N(CCN1CCSCC1)CCn1c-2c(C2CCCCC2)c2ccc(C(=O)O)cc21 [Example 1-561, 13-cyclohexyl-3-methyl-5-[2-(thiomorpholin-4-yl)ethyl]-6,7-dihydro-5H-benzo[5,6][1,4]diazepino[7,1-a]indole-10-carboxylic acid dihydrochloride] | < 100 |
| Cc1ccc2c(c1)N(C1CCNCC1)CCn1c-2c(C2CCCCC2)c2ccc(C(=O)O)cc21 [Example 1-562, 13-cyclohexyl-3-methyl-5-(piperidin-4-yl)-6,7-dihydro-5H-benzo[5,6][1,4]diazepino[7,1-a]indole-10-carboxylic acid dihydrochloride] | < 100 |
| CC(=O)N1CCC(N2CCn3c(c(C4CCCCC4)c4ccc(C(=O)O)cc43)-c3ccc(C)cc32)CC1 [Example 1-563, 5-(1-acetylpiperidin-4-yl)-13-cyclohexyl-3-methyl-6,7-dihydro-5H-benzo[5,6][1,4]diazepino[7,1-a]indole-10-carboxylic acid] | < 100 |
| Cc1ccc2c(c1)N(C1CCN(C)CC1)CCn1c-2c(C2CCCCC2)c2ccc(C(=O)O)cc21 [Example 1-564, 13-cyclohexyl-3-methyl-5-(1-methylpiperidin-4-yl)-6,7-dihydro-5H-benzo[5,6][1,4]diazepino[7,1-a]indole-10-carboxylic acid dihydrochloride] | < 100 |
| CN(C)CCN1CCn2c(c(C3CCCCC3)c3ccc(C(=O)O)cc32)-c2ccc(OCc3ccncc3)cc21 [Example 1-565, 13-cyclohexyl-5-(2-dimethylaminoethyl)-3-(pyridin-4-ylmethoxy)-6,7-dihydro-5H-benzo[5,6][1,4]diazepino[7,1-a]indole-10-carboxylic acid trihydrochloride] | < 100 |
| Cc1ccc2c(c1)N(CCN1CCC[C@@H](CCN3CCCC3=O)C1)CCn1c-2c(C2CCCCC2)c2ccc(C(=O)O)cc21 [Example 1-566, 13-cyclohexyl-3-methyl-5-(2-{(S)-3-[2-(2-oxopyrrolidin-1-yl)ethyl]piperidin-1-yl]ethyl}-6,7-dihydro-5H-benzo[5,6][1,4]diazepino[7,1-a]indole-10-carboxylic acid dihydrochloride] | < 100 |
| Cc1ccc2c(c1)N(C)C(C)Cn1c-2c(C2CCCCC2)c2ccc(C(=O)O)cc21 (centres unmarked) [Example 1-567, 13-cyclohexyl-3,5,6-trimethyl-6,7-dihydro-5H-benzo[5,6][1,4]diazepino[7,1-a]indole-10-carboxylic acid] | < 100 |
| COc1ccc2c(c1)N(CCN1CCSCC1)CCn1c-2c(C2CCCCC2)c2ccc(C(=O)O)cc21 [Example 1-568, 13-cyclohexyl-3-methoxy-5-[2-(thiomorpholin-4-yl)ethyl]-6,7-dihydro-5H-benzo[5,6][1,4]diazepino[7,1-a]indole-10-carboxylic acid dihydrochloride] | < 100 |
| Cc1ccc2c(c1)N(C)CCn1c-2c(C2CCCCC2)c2ccc(C(=O)O)c(C)c21 [Example 1-569, 13-cyclohexyl-3,5,9-trimethyl-6,7-dihydro-5H-benzo[5,6][1,4]diazepino[7,1-a]indole-10-carboxylic acid] | 100 to 1000 |
| COCC[C@@H]1CCCN(C(=O)CN2CCn3c(c(C4CCCCC4)c4ccc(C(=O)O)cc43)-c3ccc(C)cc32)C1 [Example 1-570, 13-cyclohexyl-5-{2-[(S)-3-(2-methoxyethyl)piperidin-1-yl]-2-oxoethyl}-3-methyl-6,7-dihydro-5H-benzo[5,6][1,4]diazepino[7,1-a]indole-10-carboxylic acid] | < 100 |
| Cc1ccc2c(c1)N(CC(=O)N1CCN(S(C)(=O)=O)CC1)CCn1c-2c(C2CCCCC2)c2ccc(C(=O)O)cc21 [Example 1-571, 13-cyclohexyl-5-[2-(4-methanesulfonylpiperazin-1-yl)-2-oxoethyl]-3-methyl-6,7-dihydro-5H-benzo[5,6][1,4]diazepino[7,1-a]indole-10-carboxylic acid] | < 100 |
| COC1CCN(C(=O)CN2CCn3c(c(C4CCCCC4)c4ccc(C(=O)O)cc43)-c3ccc(C)cc32)CC1 [Example 1-572, 13-cyclohexyl-5-[2-(4-methoxypiperidin-1-yl)-2-oxoethyl]-3-methyl-6,7-dihydro-5H-benzo[5,6][1,4]diazepino[7,1-a]indole-10-carboxylic acid] | < 100 |
| CNC(=O)c1ccc2c(C3CCCCC3)c3n(c2c1)CCN(CC(=O)N1CCN(S(C)(=O)=O)CC1)c1cc(C)ccc1-3 [Example 1-573, N-methyl-13-cyclohexyl-5-[2-(4-methanesulfonylpiperazin-1-yl)-2-oxoethyl]-3-methyl-6,7-dihydro-5H-benzo[5,6][1,4]diazepino[7,1-a]indole-10-carboxamide] | < 100 |
| Cc1ccc2c(c1)N(C)CCn1c-2c(C2CCCCC2)c2ccc(C(=O)O)cc21 [Example 1-574, 13-cyclohexyl-3,5-dimethyl-6,7-dihydro-5H-benzo[5,6][1,4]diazepino[7,1-a]indole-10-carboxylic acid] | < 100 |
| CN(C)CCN1CCn2c(c(C3CCCCC3)c3ccc(C(=O)O)cc32)-c2ccc(OCCN3CCOC3=O)cc21 [Example 1-575, 13-cyclohexyl-5-(2-dimethylaminoethyl)-3-[2-(2-oxooxazolidin-3-yl)ethoxy]-6,7-dihydro-5H-benzo[5,6][1,4]diazepino[7,1-a]indole-10-carboxylic acid dihydrochloride] | < 100 |
| CN(C)CCN1CCn2c(c(C3CCCCC3)c3ccc(C(=O)O)cc32)-c2ccc(OCCNCCO)cc21 [Example 1-576, 13-cyclohexyl-5-(2-dimethylaminoethyl)-3-[2-(2-hydroxyethylamino)ethoxy]-6,7-dihydro-5H-benzo[5,6][1,4]diazepino[7,1-a]indole-10-carboxylic acid trihydrochloride] | < 100 |
| COc1cccc(COc2ccc3c(c2)N(CCN(C)C)CCn2c-3c(C3CCCCC3)c3ccc(C(=O)O)cc32)c1 [Example 1-577, 13-cyclohexyl-5-(2-dimethylaminoethyl)-3-(3-methoxybenzyloxy)-6,7-dihydro-5H-benzo[5,6][1,4]diazepino[7,1-a]indole-10-carboxylic acid dihydrochloride] | < 100 |
| CN(C)CCN1CCn2c(c(C3CCCCC3)c3ccc(C(=O)O)cc32)-c2ccc(OCc3cccc(N)c3)cc21 [Example 1-578, 3-(3-aminobenzyloxy)-13-cyclohexyl-5-(2-dimethylaminoethyl)-6,7-dihydro-5H-benzo[5,6][1,4]diazepino[7,1-a]indole-10-carboxylic acid trihydrochloride] | < 100 |
| CN(C)CCN1CCn2c(c(C3CCCCC3)c3ccc(C(=O)O)cc32)-c2ccc(OCc3cccc([N+](=O)[O-])c3)cc21 [Example 1-579, 13-cyclohexyl-5-(2-dimethylaminoethyl)-3-(3-nitrobenzyloxy)-6,7-dihydro-5H-benzo[5,6][1,4]diazepino[7,1-a]indole-10-carboxylic acid dihydrochloride] | < 100 |
| COC(=O)N1CCC(CCN2CCn3c(c(C4CCCCC4)c4ccc(C(=O)O)cc43)-c3ccc(Cl)cc32)CC1 [Example 1-580, 3-chloro-13-cyclohexyl-5-[2-(1-methoxycarbonylpiperidin-4-yl)ethyl]-6,7-dihydro-5H-benzo[5,6][1,4]diazepino[7,1-a]indole-10-carboxylic acid] | < 100 |
| Cc1ccc2c(c1)N(CCc1ccc(F)cc1)CCn1c-2c(C2CCCCC2)c2ccc(C(=O)O)cc21 [Example 1-581, 13-cyclohexyl-5-[2-(4-fluorophenyl)ethyl]-3-methyl-6,7-dihydro-5H-benzo[5,6][1,4]diazepino[7,1-a]indole-10-carboxylic acid] | < 100 |
| CC(=O)Nc1cccc(COc2ccc3c(c2)N(CCN(C)C)CCn2c-3c(C3CCCCC3)c3ccc(C(=O)O)cc32)c1 [Example 1-582, 3-(3-acetylaminobenzyloxy)-13-cyclohexyl-5-(2-dimethylaminoethyl)-6,7-dihydro-5H-benzo[5,6][1,4]diazepino[7,1-a]indole-10-carboxylic acid dihydrochloride] | < 100 |
